Experiments:
UT-B [1] = biological target: T1, UT-B (Homo sapiens, UniProt Q13336); assay: Stopped-flow light scattering, urea permeability of human RBCs; assay type: cell-based; conditions: for inhibition of urea transport, inhibitor added only to urea-containing solution (sidedness): 0.1 μM ureainh-101, 0.2 μM ureainh-302, external exposure at time of mixing; for reversibility of inhibition after washing RBCs: 10 min pre-incubation, then wash
T1 construct: the indicator cells are red blood cells that endogenously express the UT-B urea transporter; endogenous in cells; host or cells: human red blood cells (whole venous blood, single donor)
T1 sequence (Q13336 1-389): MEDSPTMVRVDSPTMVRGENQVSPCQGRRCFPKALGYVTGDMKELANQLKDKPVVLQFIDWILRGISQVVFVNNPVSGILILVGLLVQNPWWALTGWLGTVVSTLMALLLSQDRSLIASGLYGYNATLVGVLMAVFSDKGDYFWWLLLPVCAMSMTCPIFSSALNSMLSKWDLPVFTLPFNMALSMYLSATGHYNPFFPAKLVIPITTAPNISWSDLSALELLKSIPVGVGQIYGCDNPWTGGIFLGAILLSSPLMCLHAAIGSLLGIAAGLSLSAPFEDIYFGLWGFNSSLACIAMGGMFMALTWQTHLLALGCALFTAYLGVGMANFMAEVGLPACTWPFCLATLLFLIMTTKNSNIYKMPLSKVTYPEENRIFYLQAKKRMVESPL
Procedure: RBC urea and water permeabilities were assayed by stopped-flow light scattering using a Hi-Tech Sf-51 instrument (Wiltshire, UK). […] After an initial osmotic shrinking phase, the kinetics of increasing cell volume caused by urea influx were measured as the time-course of 90° scattered light intensity at 530 nm, with increasing cell volume resulting in reduced scattered light intensity. As a positive control, 0.7 mM phloretin was added to the RBC suspension prior to stopped-flow experiments. Measurements of water permeability were carried out similarly, with sucrose (cell-impermeant) used instead of urea to establish a 250-mM osmotic gradient. As a positive control, HgCl2 (0.3 mM) was added to the RBC suspension prior to stopped-flow measurements. Osmotic water permeability coefficients (Pf) were computed from light scattering data as described (van Hoek et al., J. Biol. Chem. 267:18267-69 (1992)).
After repeating the 96-well plate RBC lysis assay to confirm compound activity (see Example 2), bona fide urea transport inhibition was determined by stopped-flow light scattering from the kinetics of urea influx (RBC swelling) in response to an inwardly directed urea gradient. Rapid mixing of an RBC suspension with a hyperosmolar solution containing excess 250 mM urea produced rapid cell shrinking due to osmotic water efflux, followed by cell swelling as urea (and water) influx occurred.
To determine EC50 values for urea transport inhibition directly, RBC urea transport was measured by stopped-flow light scattering using a non-saturating concentration of extracellular urea (to avoid possible competition effects). EC50 for inhibition of RBC urea transport was determined independently by comparing stopped-flow light scattering curves to a model of cell shrinking-swelling.
For stopped-flow experiments, a 100-mM gradient of urea (for human RBCs) or N-methylurea (for mouse RBCs) was used to minimize competition effects (apparent urea and N-methylurea affinities at 23° C. are approximately 200 and approximately 100 mM, respectively) (Mayrand et al., J. Gen. Physiol. 81:221-37 (1983)). N-methylurea, with greater than 2-fold slower RBC permeability than urea, was used in mouse studies to better resolve overlapping water and urea transport kinetics. Dose-response data were also collected for human RBCs using a high concentration of 1 M urea to distinguish between competitive vs. non-competitive inhibitor binding.
The two coupled differential equations describing water efflux and solute influx in response to externally added urea or methylurea were numerically integrated using the forward Euler method (Δt=0.01 s) to reproduce the biphasic changes in cell volume observed experimentally. Computations that were performed using the smaller time step (Δt=0.001 s) gave similar results, confirming the adequacy of the 0.01 s time step. Water flux, Jv (in cm^3/s), across erythrocyte membranes is represented by the following equation: Jv=−Pf·S·vw·[(Ie−Ic(i))+(Ue−Uc(i))]; solute flux, Js (in mol/s), is represented by the following equation: Ps·S·(Ue−Uc(i). Permeability coefficients (Pf and Ps) are expressed in units of cm/s, cell surface area (S) in cm^2, extracellular (e) and cellular (c) concentrations of impermeant (I) and urea/methylurea (U) solute in mol/cm^3, and vw is […]. Initial conditions were Ie=Ic(0)=2.9×10^−4 mol/cm^3, Ue=10^−4 mol/cm^3, and Uc(0)=0. For each time step, a new cell volume (normalized to the initial size; V(i+1)/V(0)) and a new cell permeant concentration (U(i+1)) were calculated from V(i+1)/V(0)=V(i)/V(0)−Δt·Pf·(S/V(0))·vw·[Ie(1−V(i)/V(0))+(Ue−Uc(i))] and Uc(i+1)=Uc(i)/V(0)−Δt·Us·(S/V(0))·vw·(Ue−Uc(i)). Normalized cell volume was assumed to be inversely proportional to scattered light intensity. The product of Pf and the surface area-to-volume ratio (S/V(0)) was determined to be 3.4×10^2 s^−1 and 8.5×10^2 s^−1 for human and mouse erythrocytes, respectively, from water permeability measurements. […]

urea transporter (UT) = conditions: 23° C., RBC urea transport; cited from earlier work
RBCs from wild-type mice = assay: Osmotic water permeability by stopped-flow light scattering, RBCs from wild-type mice; assay type: cell-based, mouse
Procedure: (§1) RBC urea and water permeabilities were assayed by stopped-flow light scattering using a Hi-Tech Sf-51 instrument (Wiltshire, UK). For measurement of urea permeability, dilutions of whole blood (human or mouse; see Example 1) in PBS (hematocrit: approximately 0.5%) were incubated with test compounds for 5 min and then subjected to a 250-mM inwardly directed gradient of urea. After an initial osmotic shrinking phase, the kinetics of increasing cell volume caused by urea influx were measured as the time-course of 90° scattered light intensity at 530 nm, with increasing cell volume resulting in reduced scattered light intensity. As a positive control, 0.7 mM phloretin was added to the RBC suspension prior to stopped-flow experiments. Measurements of water permeability were carried out similarly, with sucrose (cell-impermeant) used instead of urea to establish a 250-mM osmotic gradient. As a positive control, HgCl2 (0.3 mM) was added to the RBC suspension prior to stopped-flow measurements. Osmotic water permeability coefficients (Pf) were computed from light scattering data as described (van Hoek et al., J. Biol. Chem. 267:18267-69 (1992)).
This example describes chemical knock-out of UT-B by UT-B inhibitors in RBCs and the effect on UT-B-facilitated water transport. […] Osmotic water permeability was measured by stopped-flow light scattering in RBCs from wild-type and AQP1-null mice as shown in FIG. 8A. […] AQP1-null RBCs had greater than 5-fold reduced Pf compared to wild-type RBCs.

[2] = biological target: T2, UT-B-facilitated water transport (Mus musculus, UniProt Q8VHL0); assay: Osmotic water permeability by stopped-flow light scattering, RBCs from AQP1-null mice; assay type: cell-based
T2 construct: endogenous in cells; host or cells: mouse red blood cells (AQP1-null and wild-type mice, CD1 background)
T2 sequence (Q8VHL0 1-384): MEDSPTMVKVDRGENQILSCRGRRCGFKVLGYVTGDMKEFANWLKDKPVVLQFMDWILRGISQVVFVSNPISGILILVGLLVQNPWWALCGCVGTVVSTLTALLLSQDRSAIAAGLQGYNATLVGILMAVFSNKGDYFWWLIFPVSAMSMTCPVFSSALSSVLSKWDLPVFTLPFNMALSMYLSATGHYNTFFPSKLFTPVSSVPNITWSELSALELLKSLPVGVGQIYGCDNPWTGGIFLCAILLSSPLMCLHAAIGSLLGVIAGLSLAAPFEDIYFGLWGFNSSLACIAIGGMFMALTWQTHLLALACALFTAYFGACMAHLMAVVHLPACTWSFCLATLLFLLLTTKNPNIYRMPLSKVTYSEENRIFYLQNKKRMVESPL
Procedure: as §1, with “Osmotic water permeability coefficients (Pf) were computed from light scattering data as described (van Hoek et al., J. Biol. Chem. 267:18267-69 (1992)).” left out
This example describes chemical knock-out of UT-B by UT-B inhibitors in RBCs and the effect on UT-B-facilitated water transport. […] Osmotic water permeability was measured by stopped-flow light scattering in RBCs from wild-type and AQP1-null mice as shown in FIG. 8A. […]

UT-B [3] = biological target: T1, UT-B; assay: RBC lysis assay, human RBCs loaded with acetamide; assay type: cell-based; conditions: UT-B inhibitory potency

SMILES: CC(N)=O [Acetamide, reference compound]
- share of transport in RBCs that is UT-B-dependent (UT-B [1]; stopped-flow light scattering): greater than 95%

SMILES: CNC(N)=O [N-methylurea]
- apparent affinity (urea transporter (UT)): approximately 100 mM

SMILES: NC(N)=O [urea]
- apparent affinity (urea transporter (UT)): approximately 200 mM

SMILES: NC(=O)CSc1oc(-c2ccccc2)nc1S(=O)(=O)c1ccc(Br)cc1 [ureainh-101, 2-(4-(4-bromophenylsulfonyl)-2-phenyloxazol-5-ylthio)acetamide]
- effect on water transport (RBCs from wild-type mice): little effect
- inhibition of urea transport, inhibitor added only to urea-containing solution (sidedness) (UT-B [1]): did not inhibit urea transport
- reversibility of inhibition after washing RBCs (UT-B [1]): fully reversible inhibition
- effect on water permeability [2]: further inhibited

SMILES: Cc1ccc(Nc2nnc(-c3ccc(C(N)=O)cc3)c3ccccc23)cc1 [ureainh-302, 4-(4-(p-tolylamino)phthalazin-1-yl)benzamide]
- effect on water transport (RBCs from wild-type mice): little effect
- inhibition of urea transport, inhibitor added only to urea-containing solution (sidedness) (UT-B [1]): sizable effect
- inhibition at 0.4 µM (UT-B [1]; 0.1 μM ureainh-101, 0.4 μM ureainh-302, read-out: transport inhibition after 10 min pre-incubation): > 95%
- reversibility of inhibition after washing RBCs (UT-B [1]): fully reversible inhibition
- EC50 (UT-B [3]; Table 5, phthalazinamines): 0.2 µM
- effect on water permeability [2]: further inhibited

SMILES: CC(C)n1c(NCc2cc(Cl)ccc2O)nc2ccccc21 [ureainh-403, 4-chloro-2-((1-isopropyl-1H-benzo[d]imidazol-2-ylamino)methyl)phenol]
- EC50 (UT-B [3]; Table 7, aminobenzimidazoles): 5 µM

SMILES: CC(C)n1c(NCc2cc(Br)ccc2O)nc2ccccc21 [ureainh-405, 4-bromo-2-((1-isopropyl-1H-benzo[d]imidazol-2-ylamino)methyl)phenol]
- EC50 (UT-B [3]; Table 7, aminobenzimidazoles): 0.4 µM

SMILES: C=CCn1c(NCc2cc(Br)ccc2O)nc2ccccc21 [ureainh-406, 2-((1-allyl-1H-benzo[d]imidazol-2-ylamino)methyl)-4-bromophenol]
- EC50 (UT-B [3]; Table 7, aminobenzimidazoles): 1 µM

SMILES: CCN(CC)CCn1c(NCc2ccccc2O)nc2ccccc21 [ureainh-407, 2-((1-(2-(diethylamino)ethyl)-1H-benzo[d]imidazol-2-ylamino)methyl)phenol]
- EC50 (UT-B [3]; Table 7, aminobenzimidazoles): 0.8 µM

SMILES: Oc1ccccc1CNc1nc2ccccc2n1CCN1CCCCC1 [ureainh-408, 2-((1-(2-(piperidin-1-yl)ethyl)-1H-benzo[d]imidazol-2-ylamino)methyl)phenol]
- EC50 (UT-B [3]; Table 7, aminobenzimidazoles): 0.9 µM

SMILES: Oc1ccccc1CNc1nc2ccccc2n1CCN1CCOCC1 [ureainh-412, 2-((1-(2-morpholinoethyl)-1H-benzo[d]imidazol-2-ylamino)methyl)phenol]
- EC50 (UT-B [3]; Table 7, aminobenzimidazoles): 6 µM

SMILES: CCCn1c(NCc2cc(C)ccc2O)nc2ccccc21 [ureainh-414, 4-methyl-2-((1-propyl-1H-benzo[d]imidazol-2-ylamino)methyl)phenol]
- EC50 (UT-B [3]; Table 7, aminobenzimidazoles): 1 µM

SMILES: Cc1ccc(O)c(CNc2nc3ccccc3n2C(C)C)c1 [ureainh-415, 2-((1-isopropyl-1H-benzo[d]imidazol-2-ylamino)methyl)-4-methylphenol]
- EC50 (UT-B [3]; Table 7, aminobenzimidazoles): 1 µM

SMILES: CCn1c(NCc2cc(C)ccc2O)nc2ccccc21 [ureainh-416, 2-((1-ethyl-1H-benzo[d]imidazol-2-ylamino)methyl)-4-methylphenol]
- EC50 (UT-B [3]; Table 7, aminobenzimidazoles): 1 µM

SMILES: CCCCn1c(NCc2cc(C)ccc2O)nc2ccccc21 [ureainh-417, 2-((1-butyl-1H-benzo[d]imidazol-2-ylamino)methyl)-4-methylphenol]
- EC50 (UT-B [3]; Table 7, aminobenzimidazoles): 2 µM

SMILES: CCCn1c(NCc2cc(OC)ccc2O)nc2ccccc21 [ureainh-418, 4-methoxy-2-((1-propyl-1H-benzo[d]imidazol-2-ylamino)methyl)phenol]
- EC50 (UT-B [3]; Table 7, aminobenzimidazoles): 6 µM

SMILES: C=CCn1c(NCc2cc(OC)ccc2O)nc2ccccc21 [ureainh-419, 2-((1-allyl-1H-benzo[d]imidazol-2-ylamino)methyl)-4-methoxyphenol]
- EC50 (UT-B [3]; Table 7, aminobenzimidazoles): 25 µM

SMILES: COc1ccc(O)c(CNc2nc3ccccc3n2C(C)C)c1 [ureainh-420, 2-((1-isopropyl-1H-benzo[d]imidazol-2-ylamino)methyl)-4-methoxyphenol]
- EC50 (UT-B [3]; Table 7, aminobenzimidazoles): 3 µM

SMILES: CCn1c(NCc2c(O)ccc3ccccc23)nc2ccccc21 [ureainh-421, 1-((1-ethyl-1H-benzo[d]imidazol-2-ylamino)methyl)naphthalen-2-ol]
- EC50 (UT-B [3]; Table 7, aminobenzimidazoles): 3 µM

SMILES: CCn1c(NCc2cccc(OC)c2O)nc2ccccc21 [ureainh-422, 2-((1-ethyl-1H-benzo[d]imidazol-2-ylamino)methyl)-6-methoxyphenol]
- EC50 (UT-B [3]; Table 7, aminobenzimidazoles): 11 µM

SMILES: CCn1c(NC(C)c2cc(Cl)ccc2O)nc2ccccc21 (centres unmarked) [ureainh-423, 4-chloro-2-(1-(1-ethyl-1H-benzo[d]imidazol-2-ylamino)ethyl)phenol]
- EC50 (UT-B [3]; Table 7, aminobenzimidazoles): 5 µM

Reference: US9316633B2, “Methods for identifying inhibitors of solute transporters” (The Regents of the University of California, priority 2006, dated 2016)
